Experimental data reported in US20230263822A1, “MODULATION OF FACTOR 11 EXPRESSION” (Ionis Pharmaceuticals, Inc., priority 2008, published 2023).
Strand notation (5' to 3'): a small letter for the sugar, then the base; units joined by * are phosphorothioate-linked, units joined directly phosphodiester-linked; [ ] holds rarer units or linkages, { } end groups; capitals alone tell only the bases. e = 2'-O-(2-methoxyethyl) (MOE); [5mC] = 5-methylcytosine; d = 2'-deoxy (DNA)

How the values were obtained:
human Factor 11 mRNA = assay: Dose-dependent inhibition of human Factor 11 in HepG2 cells, electroporation 375-12,000 nM (Example 32); format: cell-based; conditions: for Percent inhibition of Factor 11 mRNA at 375 nM / Percent inhibition of Factor 11 mRNA at 750 nM / IC50: electroporation; for Percent inhibition of Factor 11 mRNA at 375 nM / Percent inhibition of Factor 11 mRNA at 750 nM / Percent inhibition of Factor 11 mRNA at 1,500 nM / Percent inhibition of Factor 11 mRNA at 3,000 nM / Percent inhibition of Factor 11 mRNA at 6,000 nM / Percent inhibition of Factor 11 mRNA at 12,000 nM: approx. 16 hours, relative to untreated control cells; for Percent inhibition of Factor 11 mRNA at 1,500 nM: electroporation, 1,500 nM; for Percent inhibition of Factor 11 mRNA at 3,000 nM: electroporation, 3,000 nM; for Percent inhibition of Factor 11 mRNA at 6,000 nM: electroporation, 6,000 nM; for Percent inhibition of Factor 11 mRNA at 12,000 nM: electroporation, 12,000 nM; for IC50: Factor 11 mRNA expression
Procedure: These gapmers were tested at various doses in HepG2 cells. Cells were plated at a density of 20,000 cells per well and transfected using electroporation with 375 nM, 750 nM, 1,500 nM, 3,000 nM, 6,000 nM and 12,000 nM concentrations of antisense oligonucleotide, as specified in Table 47. After a treatment period of approximately 16 hours, RNA was isolated from the cells and Factor 11 mRNA levels were measured by quantitative real-time PCR. Human Factor 11 primer probe set RTS 2966 was used to measure mRNA levels. Factor 11 mRNA levels were adjusted according to total RNA content, as measured by RIBOGREEN. Results are presented as percent inhibition of Factor 11, relative to untreated control cells.
ISIS 416850, ISIS 416858, ISIS 445522, and ISIS 445531 (see Table 45 above) were re-tested in vitro along with the microwalk gapmers under the same conditions described above.
The first two listed gapmers in Table 47 are the original gapmers (ISIS 416850 and ISIS 416858) from which the remaining gapmers were designed via microwalk and are designated by an asterisk.

[1] = Body and organ weights of cynomolgus monkeys (Example 45); format: in vivo; conditions: for Organ weights, Kidney / Organ weights, Liver / Organ weights, Spleen: after the animals were euthanized; for body weights: escalating dose regimen;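 on Organ weights, Kidney: absolute organ weight in grams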;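 on Organ weights, Liver: absolute organ weight in grams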;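 on Organ weights, Spleen: absolute organ weight in grams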
Procedure: (§1) Groups, each consisting of two male and three female monkeys, were injected subcutaneously with ISIS 416838, ISIS 416850, ISIS 416858, ISIS 416864, or ISIS 417002 in escalating doses. Antisense oligonucleotide was administered to the monkeys at 5 mg/kg three times per a week for week 1; 5 mg/kg twice per week for weeks 2 and 3; 10 mg/kg three times per week for week 4; 10 mg/kg twice per week for weeks 5 and 6; 25 mg/kg three times per week for week 7; and 25 mg/kg twice per week for weeks 8, 9, 10, 11, and 12. One control group, consisting of two male and three female monkeys, was injected subcutaneously with PBS according to the same dosing regimen. An additional experimental group, consisting of two male and three female monkeys, was injected subcutaneously with ISIS 416850 in a chronic, lower dose regimen. Antisense oligonucleotide was administered to the monkeys at 5 mg/kg three times per week for week 1; 5 mg/kg twice per week for week 2 and 3; 10 mg/kg three times per week for week 4; and 10 mg/kg twice per week for weeks 5 to 12. Body weights were measured weekly. Blood samples were collected 14 days and 5 days before the start of treatment and subsequently once per week for Factor 11 protein activity analysis in plasma, fibrinogen measurement, PT and aPTT measurements, bleeding times, and measurement of various hematologic factors. On day 85, the monkeys were euthanized by exsanguination while under deep anesthesia, and organs harvested for further analysis.
Body weights were taken once weekly throughout the dosing regimen. […] Organ weights were taken after the animals were euthanized and livers, kidneys and spleens were harvested and weighed. […] The ISIS oligonucleotide, ISIS 416850, given with the chronic dose regimen is distinguished from the other oligonucleotides with an asterisk (*).

[2] = Tolerability in CD1 mice: liver function, ALT, AST, bilirubin, albumin (Example 33); conditions: plasma, 50 mg/kg s.c. twice a week
Procedure: A control group of five mice was injected subcutaneously with PBS for 2 weeks. All experimental groups (i.e. ASO treated mice at 2, 4, 6 weeks) were compared to the control group (i.e. PBS, 2 weeks).
To evaluate the effect of ISIS oligonucleotides on hepatic function, plasma concentrations of transaminases were measured using an automated clinical chemistry analyzer (Hitachi Olympus AU400e, Melville, N.Y.). […] Plasma levels of bilirubin and albumin were also measured using the same clinical chemistry analyzer and expressed in mg/dL.

fibrinogen = assay: Fibrinogen assay (Example 45); format: in vivo, cynomolgus monkeys; conditions: plasma, escalating dose regimen
Procedure: as §1
Nine parts of fresh monkey plasma was collected into one part of trisodium citrate. The samples were evaluated of fibrinogen content using an ACL 9000 coagulation instrument (Instrumentation Laboratory, Italy). The ISIS oligonucleotide, ISIS 416850, given with the chronic dose regimen is distinguished from the other oligonucleotides with an asterisk (*).

416850 (antisense TGCACAGTTTCTGGCAGGCC; 5-10-5 gapmer, further chemistry not given here) [compound 416850]
Percent inhibition of Factor 11 mRNA at 375 nM (human Factor 11 mRNA): 40%
Percent inhibition of Factor 11 mRNA at 750 nM (human Factor 11 mRNA): 59%
Percent inhibition of Factor 11 mRNA at 1,500 nM (human Factor 11 mRNA): 69%
Percent inhibition of Factor 11 mRNA at 3,000 nM (human Factor 11 mRNA): 87%
Percent inhibition of Factor 11 mRNA at 6,000 nM (human Factor 11 mRNA): 90%
Percent inhibition of Factor 11 mRNA at 12,000 nM (human Factor 11 mRNA): 95%
IC50 (human Factor 11 mRNA): 560 nM

416858 (antisense ACGGCATTGGTGCACAGTTT; 5-10-5 gapmer, further chemistry not given here) [compound 416858]
Percent inhibition of Factor 11 mRNA at 375 nM (human Factor 11 mRNA): 31%
Percent inhibition of Factor 11 mRNA at 750 nM (human Factor 11 mRNA): 35%
Percent inhibition of Factor 11 mRNA at 1,500 nM (human Factor 11 mRNA): 78%
Percent inhibition of Factor 11 mRNA at 3,000 nM (human Factor 11 mRNA): 85%
Percent inhibition of Factor 11 mRNA at 6,000 nM (human Factor 11 mRNA): 90%
Percent inhibition of Factor 11 mRNA at 12,000 nM (human Factor 11 mRNA): 93%
IC50 (human Factor 11 mRNA): 830 nM

445522 (antisense eG*e[5mC]*eA*e[5mC]*eA*dG*dT*dT*dT*d[5mC]*dT*dG*dG*e[5mC]*eA*eG*eG*e[5mC]) [compound 445522]
Percent inhibition of Factor 11 mRNA at 375 nM (human Factor 11 mRNA): 59%
Percent inhibition of Factor 11 mRNA at 750 nM (human Factor 11 mRNA): 71%
Percent inhibition of Factor 11 mRNA at 1,500 nM (human Factor 11 mRNA): 83%
Percent inhibition of Factor 11 mRNA at 3,000 nM (human Factor 11 mRNA): 82%
Percent inhibition of Factor 11 mRNA at 6,000 nM (human Factor 11 mRNA): 81%
Percent inhibition of Factor 11 mRNA at 12,000 nM (human Factor 11 mRNA): 92%

445531 (antisense eG*eG*e[5mC]*eA*eT*dT*dG*dG*dT*dG*d[5mC]*dA*d[5mC]*eA*eG*eT*eT*eT) [compound 445531]
Percent inhibition of Factor 11 mRNA at 375 nM (human Factor 11 mRNA): 44%
Percent inhibition of Factor 11 mRNA at 750 nM (human Factor 11 mRNA): 64%
Percent inhibition of Factor 11 mRNA at 1,500 nM (human Factor 11 mRNA): 78%
Percent inhibition of Factor 11 mRNA at 3,000 nM (human Factor 11 mRNA): 86%
Percent inhibition of Factor 11 mRNA at 6,000 nM (human Factor 11 mRNA): 91%
Percent inhibition of Factor 11 mRNA at 12,000 nM (human Factor 11 mRNA): 93%
IC50 (human Factor 11 mRNA): 440 nM

ISIS 416838: MOE gapmer, nucleobases 1018 to 1042 of SEQ ID NO: 1 (Table 6) (antisense GCAACCGGGATGATGAGTGC; MOE gapmer, wing and gap sizes not given here)
Organ weights, Kidney [1]: 12 g
Organ weights, Liver [1]: 63 g
Organ weights, Spleen [1]: 5 g
body weights ([1]; day 1): 2720 g
body weights ([1]; day 8): 2592 g
body weights ([1]; day 15): 2642 g
body weights ([1]; day 22): 2702 g
body weights ([1]; day 29): 2689 g
body weights ([1]; day 36): 2708 g
body weights ([1]; day 43): 2700 g
body weights ([1]; day 50): 2731 g
body weights ([1]; day 57): 2737 g
body weights ([1]; day 64): 2746 g
body weights ([1]; day 71): 2869 g
body weights ([1]; day 78): 2766 g
ALT ([2]; 2 weeks): 61 IU/L
AST ([2]; 2 weeks): 106 IU/L
Albumin ([2]; 2 weeks): 3.5
Bilirubin ([2]; 2 weeks): 0.57 mg/dL
ALT ([2]; 4 weeks): 41 IU/L
AST ([2]; 4 weeks): 73 IU/L
Albumin ([2]; 4 weeks): 3.8
Bilirubin ([2]; 4 weeks): 0.24 mg/dL
ALT ([2]; 6 weeks): 141 IU/L
AST ([2]; 6 weeks): 107 IU/L
Albumin ([2]; 6 weeks): 3.6
Bilirubin ([2]; 6 weeks): 0.20 mg/dL
fibrinogen levels (fibrinogen; day 8): 209 mg/dL
fibrinogen levels (fibrinogen; day 15): 198 mg/dL
fibrinogen levels (fibrinogen; day 22): 183 mg/dL
fibrinogen levels (fibrinogen; day 29): 184 mg/dL
fibrinogen levels (fibrinogen; day 36): 182 mg/dL
fibrinogen levels (fibrinogen; day 43): 186 mg/dL
fibrinogen levels (fibrinogen; day 50): 216 mg/dL
fibrinogen levels (fibrinogen; day 57): 190 mg/dL
fibrinogen levels (fibrinogen; day 64): 190 mg/dL
fibrinogen levels (fibrinogen; day 71): 199 mg/dL
fibrinogen levels (fibrinogen; day 78): 189 mg/dL
fibrinogen levels (fibrinogen; day 85): 196 mg/dL
fibrinogen levels (fibrinogen; day −5): 205 mg/dL
fibrinogen levels (fibrinogen; day −14): 251 mg/dL

ISIS 416858: MOE gapmer, nucleobases 1275 to 1318 of SEQ ID NO: 1 (Table 8) (antisense ACGGCATTGGTGCACAGTTT; MOE gapmer, wing and gap sizes not given here)
Organ weights, Kidney [1]: 13 g
Organ weights, Liver [1]: 60 g
Organ weights, Spleen [1]: 12 g
Spleen weight ([1]; cynomolgus monkeys, compared to the PBS control): shows increase in spleen weight
body weights ([1]; day 1): 2912 g
body weights ([1]; day 8): 2740 g
body weights ([1]; day 15): 2760 g
body weights ([1]; day 22): 2800 g
body weights ([1]; day 29): 2763 g
body weights ([1]; day 36): 2584 g
body weights ([1]; day 43): 2607 g
body weights ([1]; day 50): 2646 g
body weights ([1]; day 57): 2617 g
body weights ([1]; day 64): 2618 g
body weights ([1]; day 71): 2865 g
body weights ([1]; day 78): 2713 g
ALT ([2]; 2 weeks): 190 IU/L
AST ([2]; 2 weeks): 236 IU/L
Albumin ([2]; 2 weeks): 3.4
Bilirubin ([2]; 2 weeks): 0.57 mg/dL
ALT ([2]; 4 weeks): 57 IU/L
AST ([2]; 4 weeks): 108 IU/L
Albumin ([2]; 4 weeks): 3.5
Bilirubin ([2]; 4 weeks): 0.24 mg/dL
ALT ([2]; 6 weeks): 216 IU/L
AST ([2]; 6 weeks): 178 IU/L
Albumin ([2]; 6 weeks): 2.8
Bilirubin ([2]; 6 weeks): 0.16 mg/dL
fibrinogen levels (fibrinogen; day 8): 246 mg/dL
fibrinogen levels (fibrinogen; day 15): 219 mg/dL
fibrinogen levels (fibrinogen; day 22): 222 mg/dL
fibrinogen levels (fibrinogen; day 29): 220 mg/dL
fibrinogen levels (fibrinogen; day 36): 225 mg/dL
fibrinogen levels (fibrinogen; day 43): 229 mg/dL
fibrinogen levels (fibrinogen; day 50): 259 mg/dL
fibrinogen levels (fibrinogen; day 57): 225 mg/dL
fibrinogen levels (fibrinogen; day 64): 236 mg/dL
fibrinogen levels (fibrinogen; day 71): 239 mg/dL
fibrinogen levels (fibrinogen; day 78): 234 mg/dL
fibrinogen levels (fibrinogen; day 85): 243 mg/dL
fibrinogen levels (fibrinogen; day −5): 246 mg/dL
fibrinogen levels (fibrinogen; day −14): 277 mg/dL

ISIS 416864: MOE gapmer, nucleobases 1275 to 1318 of SEQ ID NO: 1 (Table 8) (antisense GGCAGCGGACGGCATTGGTG; MOE gapmer, wing and gap sizes not given here)
Organ weights, Kidney [1]: 14 g
Organ weights, Liver [1]: 53 g
Organ weights, Spleen [1]: 5 g
body weights ([1]; day 1): 2890 g
body weights ([1]; day 8): 2784 g
body weights ([1]; day 15): 2817 g
body weights ([1]; day 22): 2857 g
body weights ([1]; day 29): 2863 g
body weights ([1]; day 36): 3327 g
body weights ([1]; day 43): 3355 g
body weights ([1]; day 50): 3408 g
body weights ([1]; day 57): 3387 g
body weights ([1]; day 64): 3384 g
body weights ([1]; day 71): 2942 g
body weights ([1]; day 78): 2822 g
ALT ([2]; 2 weeks): 44 IU/L
AST ([2]; 2 weeks): 58 IU/L
Albumin ([2]; 2 weeks): 3.5
Bilirubin ([2]; 2 weeks): 0.40 mg/dL
ALT ([2]; 4 weeks): 33 IU/L
AST ([2]; 4 weeks): 46 IU/L
Albumin ([2]; 4 weeks): 3.6
Bilirubin ([2]; 4 weeks): 0.26 mg/dL
ALT ([2]; 6 weeks): 92 IU/L
AST ([2]; 6 weeks): 101 IU/L
Albumin ([2]; 6 weeks): 3.5
Bilirubin ([2]; 6 weeks): 0.22 mg/dL
fibrinogen levels (fibrinogen; day 8): 227 mg/dL
fibrinogen levels (fibrinogen; day 15): 210 mg/dL
fibrinogen levels (fibrinogen; day 22): 184 mg/dL
fibrinogen levels (fibrinogen; day 29): 205 mg/dL
fibrinogen levels (fibrinogen; day 36): 202 mg/dL
fibrinogen levels (fibrinogen; day 43): 198 mg/dL
fibrinogen levels (fibrinogen; day 50): 233 mg/dL
fibrinogen levels (fibrinogen; day 57): 200 mg/dL
fibrinogen levels (fibrinogen; day 64): 218 mg/dL
fibrinogen levels (fibrinogen; day 71): 245 mg/dL
fibrinogen levels (fibrinogen; day 78): 250 mg/dL
fibrinogen levels (fibrinogen; day 85): 240 mg/dL
fibrinogen levels (fibrinogen; day −5): 243 mg/dL
fibrinogen levels (fibrinogen; day −14): 300 mg/dL
